Columns and labels:
[1] = target: FAK (Homo sapiens, UniProt Q05397); assay: Luminex bead sandwich assay of FAK autophosphorylation in HT29 cell lysate after FCS activation; type: cell-based; conditions: HT29 cells, 30 μM inhibitor 45 min
[2] = target: IGFR1 (Homo sapiens, UniProt P08069); assay: Luminex bead sandwich assay of IGFR1 autophosphorylation in HT29 cell lysate after IGF activation; type: cell-based; conditions: HT29 cells, 30 μM inhibitor 45 min, IGF 100 ng/ml
[3] = target: Met (Homo sapiens, UniProt P08581); assay: Luminex bead sandwich assay of Met autophosphorylation in HT29 cell lysate after HGF activation; conditions: HT29 cells, 30 μM inhibitor 45 min, HGF 100 ng/ml
Met, sequence (P08581 25-1390): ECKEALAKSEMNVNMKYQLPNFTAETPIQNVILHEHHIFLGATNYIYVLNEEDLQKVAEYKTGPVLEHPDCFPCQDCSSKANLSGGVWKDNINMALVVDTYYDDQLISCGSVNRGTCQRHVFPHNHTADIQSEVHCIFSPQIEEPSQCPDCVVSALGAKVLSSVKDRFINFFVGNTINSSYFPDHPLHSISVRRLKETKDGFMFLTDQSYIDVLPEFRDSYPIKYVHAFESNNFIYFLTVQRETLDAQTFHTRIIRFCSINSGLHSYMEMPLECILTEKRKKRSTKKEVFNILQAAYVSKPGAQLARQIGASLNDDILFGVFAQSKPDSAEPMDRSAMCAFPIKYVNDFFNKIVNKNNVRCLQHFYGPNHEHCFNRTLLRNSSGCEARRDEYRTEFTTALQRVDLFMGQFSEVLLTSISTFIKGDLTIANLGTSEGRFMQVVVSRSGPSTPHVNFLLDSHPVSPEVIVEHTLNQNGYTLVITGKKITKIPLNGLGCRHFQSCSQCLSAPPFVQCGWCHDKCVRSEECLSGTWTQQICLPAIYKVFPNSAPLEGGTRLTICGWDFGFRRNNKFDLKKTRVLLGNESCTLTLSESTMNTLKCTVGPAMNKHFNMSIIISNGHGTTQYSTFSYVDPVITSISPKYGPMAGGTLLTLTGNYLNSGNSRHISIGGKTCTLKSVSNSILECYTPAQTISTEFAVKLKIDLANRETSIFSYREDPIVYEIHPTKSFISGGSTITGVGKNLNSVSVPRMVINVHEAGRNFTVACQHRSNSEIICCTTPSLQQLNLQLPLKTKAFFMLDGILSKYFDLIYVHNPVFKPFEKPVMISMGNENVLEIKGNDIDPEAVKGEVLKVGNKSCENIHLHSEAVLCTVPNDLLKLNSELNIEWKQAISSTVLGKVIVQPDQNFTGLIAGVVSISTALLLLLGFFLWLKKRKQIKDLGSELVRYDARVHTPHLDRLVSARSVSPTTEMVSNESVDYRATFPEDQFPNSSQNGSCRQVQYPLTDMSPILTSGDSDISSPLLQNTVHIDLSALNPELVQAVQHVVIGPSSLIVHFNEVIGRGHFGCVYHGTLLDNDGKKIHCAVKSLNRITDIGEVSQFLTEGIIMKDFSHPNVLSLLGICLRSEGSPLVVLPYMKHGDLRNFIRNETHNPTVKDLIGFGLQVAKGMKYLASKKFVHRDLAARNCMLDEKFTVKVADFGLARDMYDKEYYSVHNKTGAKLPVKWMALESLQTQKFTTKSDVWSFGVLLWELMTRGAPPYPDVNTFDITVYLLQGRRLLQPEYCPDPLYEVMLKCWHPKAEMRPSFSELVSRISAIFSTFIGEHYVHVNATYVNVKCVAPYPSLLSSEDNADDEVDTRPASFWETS
Protocol: Human tumor cell line HT29 (colorectal carcinoma) were obtained from ATCC and maintained in Dulbecco's modified Eagle's medium containing 10% fetal calf serum at 37° C. in 5% CO2. 16-20 h before inhibitor treatment HT29 cells were starved in medium without fetal calf serum. Cells were incubated for 45 min with 30 μM kinase inhibitor (EGFR-lnhibitor, FAK-inhibitor, IGFR1-inhibitor or Met-Inhibitor) or in medium without kinase inhibitor as a positive control.
Activation of the kinases was initiated for 10-15 min with 100 ng/ml of the corresponding ligands EGF, IGF, HGF for Met kinase or fetal calf serum (FCS) for FAK kinase. […]
2.5×10^6 Luminex microspheres were coupled with 50 μg/ml antibody as described by the manufacturer (capture antibodies for EGFR, IGFR, MET and Fak were obtained from R&D-Systems and Upstate). […] After three wash steps with assay buffer, phosphorylated tyrosin-residues were detected with a biotinylated anti-phospho-tyrosin antibody (1 h agitation at room temperature; Santa Cruz Biotechnology) and phycoerythrin-conjugated Streptavidin (45 min agitation at room temperature; Dianova). Microspheres were analysed in a Luminex™ 100 machine as described by the manufacturer.

IGFR1, sequence (P08069 31-1367): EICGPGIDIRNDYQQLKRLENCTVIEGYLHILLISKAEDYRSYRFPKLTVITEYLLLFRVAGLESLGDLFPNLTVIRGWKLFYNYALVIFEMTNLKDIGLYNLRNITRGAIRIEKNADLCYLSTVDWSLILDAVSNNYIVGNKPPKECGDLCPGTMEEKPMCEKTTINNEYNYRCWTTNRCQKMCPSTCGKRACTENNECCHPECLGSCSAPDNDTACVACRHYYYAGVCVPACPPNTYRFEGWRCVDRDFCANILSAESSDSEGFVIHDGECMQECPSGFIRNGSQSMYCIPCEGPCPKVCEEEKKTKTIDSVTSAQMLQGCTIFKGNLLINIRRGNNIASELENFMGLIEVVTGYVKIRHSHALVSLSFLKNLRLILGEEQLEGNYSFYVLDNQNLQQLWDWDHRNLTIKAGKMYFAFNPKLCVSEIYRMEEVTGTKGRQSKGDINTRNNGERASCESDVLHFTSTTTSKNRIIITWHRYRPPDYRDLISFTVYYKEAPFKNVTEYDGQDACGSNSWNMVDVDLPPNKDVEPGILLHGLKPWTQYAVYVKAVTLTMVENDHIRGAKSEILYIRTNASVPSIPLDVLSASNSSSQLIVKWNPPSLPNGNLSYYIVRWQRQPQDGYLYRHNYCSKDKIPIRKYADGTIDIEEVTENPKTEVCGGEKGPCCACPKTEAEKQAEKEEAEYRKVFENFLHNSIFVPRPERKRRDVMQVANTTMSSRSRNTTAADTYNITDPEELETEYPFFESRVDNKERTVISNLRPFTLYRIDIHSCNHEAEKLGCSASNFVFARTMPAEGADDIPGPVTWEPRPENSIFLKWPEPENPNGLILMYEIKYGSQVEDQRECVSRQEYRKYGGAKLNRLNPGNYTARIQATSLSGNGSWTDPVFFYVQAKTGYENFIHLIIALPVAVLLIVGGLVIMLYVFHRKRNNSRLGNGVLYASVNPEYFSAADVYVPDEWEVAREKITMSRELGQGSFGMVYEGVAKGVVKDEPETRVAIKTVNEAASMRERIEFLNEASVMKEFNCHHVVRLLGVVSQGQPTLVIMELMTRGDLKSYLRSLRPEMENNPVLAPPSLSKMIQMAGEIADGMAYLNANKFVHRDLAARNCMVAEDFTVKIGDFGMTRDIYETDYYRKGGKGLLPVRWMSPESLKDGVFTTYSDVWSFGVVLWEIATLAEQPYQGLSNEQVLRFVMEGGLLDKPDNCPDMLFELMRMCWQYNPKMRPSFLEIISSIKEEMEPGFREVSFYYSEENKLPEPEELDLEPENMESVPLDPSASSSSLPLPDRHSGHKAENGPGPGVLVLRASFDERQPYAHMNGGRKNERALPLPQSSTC
FAK, sequence (Q05397 whole entry): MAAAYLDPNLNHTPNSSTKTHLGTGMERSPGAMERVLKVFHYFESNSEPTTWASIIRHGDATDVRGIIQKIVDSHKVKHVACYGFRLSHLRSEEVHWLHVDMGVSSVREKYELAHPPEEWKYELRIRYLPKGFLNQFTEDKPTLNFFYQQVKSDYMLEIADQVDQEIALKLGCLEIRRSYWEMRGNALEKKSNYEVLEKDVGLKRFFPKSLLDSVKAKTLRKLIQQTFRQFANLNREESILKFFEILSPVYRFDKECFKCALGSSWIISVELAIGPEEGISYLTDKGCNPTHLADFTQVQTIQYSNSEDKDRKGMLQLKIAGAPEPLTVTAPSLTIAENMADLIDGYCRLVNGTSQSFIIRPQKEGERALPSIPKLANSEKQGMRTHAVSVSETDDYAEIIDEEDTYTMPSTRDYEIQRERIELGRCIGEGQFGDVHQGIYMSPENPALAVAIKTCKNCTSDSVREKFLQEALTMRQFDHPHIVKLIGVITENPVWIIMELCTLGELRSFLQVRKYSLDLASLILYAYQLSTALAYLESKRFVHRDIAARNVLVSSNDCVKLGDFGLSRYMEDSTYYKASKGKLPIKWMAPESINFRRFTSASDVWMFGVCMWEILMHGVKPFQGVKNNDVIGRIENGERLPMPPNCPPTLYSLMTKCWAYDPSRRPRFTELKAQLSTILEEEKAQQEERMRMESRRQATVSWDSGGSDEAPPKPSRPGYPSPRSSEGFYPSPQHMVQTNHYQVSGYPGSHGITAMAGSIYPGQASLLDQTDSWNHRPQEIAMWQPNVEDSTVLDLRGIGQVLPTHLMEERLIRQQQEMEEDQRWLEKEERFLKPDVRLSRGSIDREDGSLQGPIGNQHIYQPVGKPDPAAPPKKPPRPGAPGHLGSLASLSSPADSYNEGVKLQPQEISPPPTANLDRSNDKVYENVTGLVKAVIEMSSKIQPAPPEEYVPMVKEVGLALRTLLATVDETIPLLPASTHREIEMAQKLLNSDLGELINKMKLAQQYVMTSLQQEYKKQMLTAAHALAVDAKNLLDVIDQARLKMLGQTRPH

| FAK-phosphorylation, mean fluorescence intensity (MFI) ([1]; multiple capture antibodies (EGFR, IGFR, FAK, Met) in one cavity, control without inhibitor MFI=1143) | FAK-phosphorylation, mean fluorescence intensity (MFI) ([1]; single capture antibody (FAK) in one cavity, control without inhibitor MFI=957) | IGFR1-phosphorylation, mean fluorescence intensity (MFI) ([2]; multiple capture antibodies (EGFR, IGFR, FAK, Met) in one cavity, control without inhibitor MFI=673) | IGFR1-phosphorylation, mean fluorescence intensity (MFI) ([2]; single capture antibody (IGFR1) in one cavity, control without inhibitor MFI=529) | Met-phosphorylation, mean fluorescence intensity (MFI) ([3]; multiple capture antibodies (EGFR, IGFR, FAK, Met) in one cavity, control without inhibitor MFI=817) | Met-phosphorylation, mean fluorescence intensity (MFI) ([3]; single capture antibody (Met) in one cavity, control without inhibitor MFI=675) | Compound |
| --- | --- | --- | --- | --- | --- | --- |
| 39 | 37 | 3 | 3 | – | – | COc1cc(Nc2nccc(Nc3cnc4ccccc4c3)n2)cc(OC)c1OC [FAK-Kinase inhibitor] |
| – | – | – | – | 9 | 9 | Cc1[nH]c(/C=C2\C(=O)Nc3ccc(S(=O)(=O)Cc4c(Cl)cccc4Cl)cc32)c(C)c1C(=O)N1CCC[C@@H]1CN1CCCC1 [Met-Kinase inhibitor] |
